Assays:
Assay in all cases: relative viability (nuclei count vs DMSO), 5 days (fraction); higher = more cells survive
Axitinib + Alpelisib = compound: CNC(=O)c1ccccc1Sc1ccc2c(/C=C/c3ccccn3)n[nH]c2c1 [Axitinib] + Cc1nc(NC(=O)N2CCC[C@H]2C(N)=O)sc1-c1ccnc(C(C)(C)C(F)(F)F)c1 [Alpelisib] (partner 2 µM)
How it was run: (§1)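 A single step with final 0.05% Triton X-100, 1% formaldehyde and 1 ug/ml Hoechst fixed the cells and stained nuclei 5 days after treatment. Lung cancer cell lines in 1536-well plates had been treated by pin tool the day after seeding with one drug alone or a fixed anchor-drug dose plus five library-drug doses (not always all listed) in √10 steps, and nuclei were counted on 4× images. Relative viability is the ratio of nuclei in treated wells to nuclei in vehicle wells, taken as the median of duplicate plates.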

Axitinib + Decitabine = compound: CNC(=O)c1ccccc1Sc1ccc2c(/C=C/c3ccccn3)n[nH]c2c1 [Axitinib] + Nc1ncn([C@H]2C[C@H](O)[C@@H](CO)O2)c(=O)n1 [Decitabine] (partner 2 µM)
How it was run: as §1

[1] = compound: Nc1nc(Nc2ccc3c(c2)CC[C@@H](N2CCCC2)CC3)nn1-c1cc2c(nn1)-c1ccccc1CCC2 [Bemcentinib] + CC(=O)c1c(C)c2cnc(Nc3ccc(N4CCNCC4)cn3)nc2n(C2CCCC2)c1=O [Palbociclib] (partner 0.5 µM)
How it was run: as §1

Bemcentinib + Vorinostat = compound: Nc1nc(Nc2ccc3c(c2)CC[C@@H](N2CCCC2)CC3)nn1-c1cc2c(nn1)-c1ccccc1CCC2 [Bemcentinib] + O=C(CCCCCCC(=O)Nc1ccccc1)NO [Vorinostat] (partner 1 µM)
How it was run: as §1

Cell Line | relative viability (Axitinib + Alpelisib; first compound 0.005 µM) | relative viability (Axitinib + Alpelisib; first compound 0.01581 µM) | relative viability (Axitinib + Alpelisib; first compound 0.05 µM) | relative viability (Axitinib + Alpelisib; first compound 0.1581 µM) | relative viability (Axitinib + Alpelisib; first compound 0.5 µM) | relative viability (Axitinib + Decitabine; first compound 0.005 µM) | relative viability (Axitinib + Decitabine; first compound 0.01581 µM) | relative viability (Axitinib + Decitabine; first compound 0.05 µM) | relative viability (Axitinib + Decitabine; first compound 0.1581 µM) | relative viability (Axitinib + Decitabine; first compound 0.5 µM) | relative viability ([1]; first compound 0.04 µM) | relative viability ([1]; first compound 0.1265 µM) | relative viability ([1]; first compound 0.4 µM) | relative viability ([1]; first compound 1.265 µM) | relative viability ([1]; first compound 4 µM) | relative viability (Bemcentinib + Vorinostat; first compound 0.04 µM) | relative viability (Bemcentinib + Vorinostat; first compound 0.1265 µM) | relative viability (Bemcentinib + Vorinostat; first compound 0.4 µM) | relative viability (Bemcentinib + Vorinostat; first compound 1.265 µM) | relative viability (Bemcentinib + Vorinostat; first compound 4 µM)
NCI-H1355 | 0.891 | 0.825 | 0.794 | 0.897 | 0.909 | 0.35 | 0.421 | 0.32 | 0.339 | 0.373 | 0.396 | 0.403 | 0.419 | 0.415 | 0.437 | 0.596 | 0.617 | 0.701 | 0.65 | 0.687
LXF-289 | 1.05 | 0.961 | 1.03 | 0.958 | 1.05 | 0.388 | 0.398 | 0.353 | 0.362 | 0.395 | 0.633 | 0.629 | 0.581 | 0.558 | 0.622 | 0.658 | 0.799 | 0.662 | 0.796 | 0.763
NCI-H3122 | 0.753 | 0.719 | 0.843 | 0.711 | 0.792 | 0.42 | 0.445 | 0.448 | 0.451 | 0.51 | 0.148 | 0.192 | 0.155 | 0.192 | 0.201 | 0.548 | 1.07 | 1.11 | 1.06 | 0.983
NCI-H2023 | 0.696 | 0.615 | 0.551 | 0.54 | 0.682 | 0.209 | 0.243 | 0.238 | 0.219 | 0.226 | 0.416 | 0.398 | 0.388 | 0.437 | 0.425 | 0.77 | 0.783 | 0.619 | 0.748 | 0.66
NCI-H838 | 1.12 | 1 | 1.05 | 1 | 1.18 | 0.503 | 0.492 | 0.433 | 0.487 | 0.475 | 0.226 | 0.249 | 0.221 | 0.205 | 0.243 | 0.746 | 0.799 | 0.718 | 0.82 | 0.719
COR-L 105 | 1.08 | 1.2 | 1.02 | 0.932 | 1.18 | 0.727 | 0.557 | 0.726 | 0.727 | 0.683 | 0.385 | 0.381 | 0.412 | 0.377 | 0.396 | 0.751 | 0.985 | 0.918 | 0.933 | 0.826
RERF-LC-KJ | 0.87 | 0.767 | 0.842 | 0.77 | 0.876 | 0.663 | 0.694 | 0.67 | 0.596 | 0.738 | 0.964 | 1.07 | 1.05 | 1.24 | 1.18 | 0.699 | 0.732 | 0.713 | 0.635 | 0.65
NCI-H2405 | 0.854 | 0.847 | 0.854 | 0.877 | 0.849 | 0.767 | 0.718 | 0.777 | 0.707 | 0.811 | 0.555 | 0.549 | 0.528 | 0.59 | 0.583 | 0.991 | 1.07 | 1.1 | 1.08 | 1.06
UMC-11 | 1.08 | 0.871 | 0.959 | 1.03 | 1.16 | 0.597 | 0.577 | 0.577 | 0.615 | 0.553 | 0.354 | 0.343 | 0.323 | 0.349 | 0.324 | 0.387 | 0.359 | 0.344 | 0.321 | 0.376
PC-14 | 1.02 | 0.931 | 0.94 | 0.893 | 1.05 | 0.239 | 0.219 | 0.231 | 0.203 | 0.194 | 0.588 | 0.51 | 0.737 | 0.596 | 0.485 | 0.681 | 0.696 | 0.979 | 0.83 | 0.664
HCC-78 | 0.34 | 0.328 | 0.3 | 0.322 | 0.366 | 0.69 | 0.577 | 0.806 | 0.698 | 0.653 | 0.461 | 0.455 | 0.438 | 0.409 | 0.48 | 0.456 | 0.449 | 0.394 | 0.514 | 0.39
A-427 | 1.05 | 1.1 | 1.08 | 1.05 | 1.09 | 0.58 | 0.602 | 0.553 | 0.57 | 0.589 | 0.55 | 0.515 | 0.534 | 0.532 | 0.532 | 0.841 | 0.896 | 0.867 | 0.836 | 0.82
HCC-827 | 0.955 | 0.923 | 0.991 | 0.978 | 1.08 | 0.321 | 0.216 | 0.358 | 0.32 | 0.333 | 0.529 | 0.537 | 0.461 | 0.526 | 0.471 | 0.79 | 0.858 | 0.783 | 0.361 | 0.789
ABC-1 | 1.16 | 1.06 | 0.945 | 1.07 | 1.54 | 1.35 |  | 0.866 | 0.964 | 1.01 | 0.532 | 0.825 | 0.654 | 0.655 | 0.639 | 1.01 | 1.1 | 1.11 | 0.856 | 0.892
EPLC-272H | 1.11 | 0.868 | 0.949 | 0.884 | 0.915 | 0.411 | 0.345 | 0.338 | 0.351 | 0.377 | 0.287 | 0.309 | 0.361 | 0.302 | 0.34 | 0.441 | 0.458 | 0.459 | 0.405 | 0.58
SK-MES-1 | 0.981 | 0.974 | 1.04 | 0.943 | 1.12 | 0.324 | 0.361 | 0.364 | 0.348 | 0.449 | 0.314 | 0.33 | 0.325 | 0.316 | 0.317 | 1.1 | 1.38 | 1.17 | 1.23 | 1.24

— the supplement of paper PMC10307832
